From the NIST ThermoML archive (doi:10.1016/j.jct.2013.01.026)
Numbers after ± are expanded uncertainties.

Columns and labels:
[1] = refractive index (other wavelength) (dimensionless); settings: 298.15 K, 101.3 kPa, Liquid, Standard Abbe refractometry
[2] = refractive index (other wavelength) (dimensionless); wn = mass fraction of the nth substance listed; settings: 298.15 K, 101.3 kPa, Liquid, Standard Abbe refractometry

c1ccc2c(c1)CCCC2 [1,2,3,4-tetrahydronaphthalene]
[1]
Settings	refractive index
Wavelength=670 nm	1.53479 ± 0.00052
Wavelength=925 nm	1.52642 ± 0.00052

c1ccc2c(c1)CCCC2 [1,2,3,4-tetrahydronaphthalene] + CCCCCCCCCCCC
refractive index, [2]
Settings	w2 = 0	w2 = 0.1	w2 = 0.1999	w2 = 0.2999	w2 = 0.4001	w2 = 0.4999	w2 = 0.6002	w2 = 0.6999	w2 = 0.8	w2 = 0.9001
Wavelength=670 nm	1.53479 ± 0.00052	1.51956 ± 0.00051	1.505 ± 0.0005	1.49244 ± 0.00048	1.47987 ± 0.00047	1.46832 ± 0.00045	1.45728 ± 0.00044	1.44674 ± 0.00043	1.43694 ± 0.00042	1.42736 ± 0.0004
Wavelength=925 nm	1.52642 ± 0.00052	1.51181 ± 0.00051	1.49762 ± 0.00049	1.48558 ± 0.00048	1.47343 ± 0.00047	1.4622 ± 0.00045	1.45157 ± 0.00044	1.44149 ± 0.00043	1.43179 ± 0.00042	1.42273 ± 0.0004

CC(C)Cc1ccccc1 [(2-methylpropyl)benzene]
[1]
Settings	refractive index
Wavelength=670 nm	1.48071 ± 0.00035
Wavelength=925 nm	1.47345 ± 0.00035

CC(C)Cc1ccccc1 [(2-methylpropyl)benzene] + CCCCCCCCCCCC
refractive index, [2]
Settings	w2 = 0.0998	w2 = 0.2001	w2 = 0.3002	w2 = 0.4	w2 = 0.4999	w2 = 0.6	w2 = 0.7001	w2 = 0.8002	w2 = 0.9001
Wavelength=670 nm	1.47308 ± 0.00036	1.46588 ± 0.00036	1.45898 ± 0.00036	1.45233 ± 0.00037	1.44607 ± 0.00037	1.44006 ± 0.00037	1.43407 ± 0.00038	1.42875 ± 0.00038	1.42337 ± 0.00039
Wavelength=925 nm	1.46604 ± 0.00036	1.45912 ± 0.00036	1.45266 ± 0.00036	1.44638 ± 0.00037	1.44043 ± 0.00037	1.43444 ± 0.00037	1.42884 ± 0.00038	1.42387 ± 0.00038	1.4187 ± 0.00039

CC(C)Cc1ccccc1 [(2-methylpropyl)benzene] + c1ccc2c(c1)CCCC2
refractive index, [2]
Settings	w2 = 0	w2 = 0.1003	w2 = 0.2	w2 = 0.2999	w2 = 0.3977	w2 = 0.4996	w2 = 0.6002	w2 = 0.699	w2 = 0.8001	w2 = 0.8997
Wavelength=670 nm	1.48071 ± 0.00035	1.48573 ± 0.00036	1.49084 ± 0.00037	1.49587 ± 0.00039	1.50109 ± 0.0004	1.50663 ± 0.00042	1.51197 ± 0.00044	1.51743 ± 0.00046	1.52313 ± 0.00048	1.52865 ± 0.0005
Wavelength=925 nm	1.47345 ± 0.00035	1.47803 ± 0.00036	1.48337 ± 0.00038	1.48805 ± 0.00039	1.49344 ± 0.0004	1.49865 ± 0.00042	1.50413 ± 0.00044	1.5092 ± 0.00046	1.51499 ± 0.00048	1.52005 ± 0.0005

CCCCCCCCCCCC [dodecane]
[1]
Settings	refractive index
Wavelength=670 nm	1.41845 ± 0.00039
Wavelength=925 nm	1.41407 ± 0.00039

CCCCCCCCCCCC [dodecane] + CC(C)Cc1ccccc1
[2], w1 = 1
Settings	refractive index
Wavelength=670 nm	1.41845 ± 0.00039
Wavelength=925 nm	1.41407 ± 0.00039
